# Data from PMC5218480 (PLoS ONE, 2017).
# Test system: MV-4-11 cells
# Experiment: Gene expression microarray analysis (Affymetrix PrimeView) and GSEA
# Format: cell-based, human
# Design: RFU PODN (11730768_x_at) / Fold change /veh PODN (11730768_x_at) / RFU LINC00158 (11744669_a_at) / Fold change /veh LINC00158 (11744669_a_at) / RFU DUSP10 (11751237_a_at) / Fold change /veh DUSP10 (11751237_a_at) / RFU ID3 (11757404_x_at) / Fold change /veh ID3 (11757404_x_at) / RFU PLEKHG5 (11737974_s_at) / Fold change /veh PLEKHG5 (11737974_s_at) / RFU LRRC4B (11730491_at) / Fold change /veh LRRC4B (11730491_at) / RFU GIMAP4 (11747438_a_at) / Fold change /veh GIMAP4 (11747438_a_at) / RFU KRT8 (11758183_x_at) / Fold change /veh KRT8 (11758183_x_at) / RFU CNN1 (11734310_a_at) / Fold change /veh CNN1 (11734310_a_at) / RFU VPS37D (11726825_at) / Fold change /veh VPS37D (11726825_at) / RFU C10orf10 (11716522_x_at) / Fold change /veh C10orf10 (11716522_x_at) / RFU KIR2DL2 /// KIR2DL4 /// KIR2DL5A /// KIR2DL5B /// KIR2DS1 /// KIR2DS2 /// KIR2DS3 /// KIR2DS4 /// KIR3DL3 /// KIR3DL3 /// KIR3DS1 (11738374_at) / Fold change /veh KIR2DL2 /// KIR2DL4 /// KIR2DL5A /// KIR2DL5B /// KIR2DS1 /// KIR2DS2 /// KIR2DS3 /// KIR2DS4 /// KIR3DL3 /// KIR3DL3 /// KIR3DS1 (11738374_at) / RFU C1QL1 (11718748_at) / Fold change /veh C1QL1 (11718748_at) / RFU TMPRSS4 (11747572_a_at) / Fold change /veh TMPRSS4 (11747572_a_at) / RFU HAMP (11756126_x_at) / Fold change /veh HAMP (11756126_x_at) / RFU RNFT2 (11725882_a_at) / Fold change /veh RNFT2 (11725882_a_at) / RFU NR4A2 (11747474_a_at) / Fold change /veh NR4A2 (11747474_a_at) / RFU ABCC12 (11746883_a_at) / Fold change /veh ABCC12 (11746883_a_at) / RFU TMEM136 (11760407_x_at) / Fold change /veh TMEM136 (11760407_x_at) / RFU CLDN22 /// WWC2 (11732394_at) / Fold change /veh CLDN22 /// WWC2 (11732394_at) / RFU HLA-DPB1 (11760878_x_at) / Fold change /veh HLA-DPB1 (11760878_x_at) / RFU SPINT1 (11716480_a_at) / Fold change /veh SPINT1 (11716480_a_at) / RFU GAP43 (11754022_s_at) / Fold change /veh GAP43 (11754022_s_at) / RFU A4GNT (11735810_at) / Fold change /veh A4GNT (11735810_at) / RFU PRB3 (11715151_x_at) / Fold change /veh PRB3 (11715151_x_at) / RFU TUBB4B (11761932_at) / Fold change /veh TUBB4B (11761932_at) / RFU CAPN14 (11732068_a_at) / Fold change /veh CAPN14 (11732068_a_at) / RFU TMCC2 (11721928_a_at) / Fold change /veh TMCC2 (11721928_a_at) / RFU IRGQ (11745062_a_at) / Fold change /veh IRGQ (11745062_a_at) / RFU FAM174B (11720279_a_at) / Fold change /veh FAM174B (11720279_a_at) / RFU TMPRSS4 (11748680_a_at) / Fold change /veh TMPRSS4 (11748680_a_at) / RFU FAM212B (11763350_a_at) / Fold change /veh FAM212B (11763350_a_at) / RFU PLEKHG5 (11743358_a_at) / Fold change /veh PLEKHG5 (11743358_a_at) / RFU ZSCAN30 (11745921_a_at) / Fold change /veh ZSCAN30 (11745921_a_at) / RFU CMKLR1 (11741424_a_at) / Fold change /veh CMKLR1 (11741424_a_at) / RFU LOC101060620 /// MAPK8IP1 (11723275_at) / Fold change /veh LOC101060620 /// MAPK8IP1 (11723275_at) / RFU SPTSSB (11747773_x_at) / Fold change /veh SPTSSB (11747773_x_at) / RFU PRSS12 (11739890_at) / Fold change /veh PRSS12 (11739890_at) / RFU BIN1 (11741810_x_at) / Fold change /veh BIN1 (11741810_x_at) / RFU WNT11 (11732464_a_at) / Fold change /veh WNT11 (11732464_a_at) / RFU C10orf10 (11716521_a_at) / Fold change /veh C10orf10 (11716521_a_at) / RFU C5orf56 (11738089_at) / Fold change /veh C5orf56 (11738089_at) / RFU CYB561 (11721691_x_at) / Fold change /veh CYB561 (11721691_x_at) / RFU ANKRD19P (11752326_a_at) / Fold change /veh ANKRD19P (11752326_a_at) / RFU OR2T12 /// OR2T33 /// OR2T8 (11738714_s_at) / Fold change /veh OR2T12 /// OR2T33 /// OR2T8 (11738714_s_at) / RFU VCAN (11748164_a_at) / Fold change /veh VCAN (11748164_a_at) / RFU JSRP1 (11732532_at) / Fold change /veh JSRP1 (11732532_at) / RFU KRTAP10-11 (11738290_x_at) / Fold change /veh KRTAP10-11 (11738290_x_at) / RFU MYO3A (11730013_a_at) / Fold change /veh MYO3A (11730013_a_at) / RFU EBF3 (11725865_a_at) / Fold change /veh EBF3 (11725865_a_at) / RFU CAMK2N1 (11719241_x_at) / Fold change /veh CAMK2N1 (11719241_x_at) / RFU C5orf56 (11738088_a_at) / Fold change /veh C5orf56 (11738088_a_at) / RFU OLFML3 (11715873_a_at) / Fold change /veh OLFML3 (11715873_a_at) / RFU LOC100653217 /// NTM (11731650_a_at) / Fold change /veh LOC100653217 /// NTM (11731650_a_at) / RFU MAPK11 (11762145_a_at) / Fold change /veh MAPK11 (11762145_a_at) / RFU FIZ1 (11724087_x_at) / Fold change /veh FIZ1 (11724087_x_at) / RFU OASL (11726364_x_at) / Fold change /veh OASL (11726364_x_at) / RFU SOX15 (11748057_x_at) / Fold change /veh SOX15 (11748057_x_at) / RFU CD79A (11719716_a_at) / Fold change /veh CD79A (11719716_a_at) / RFU HIST1H1D (11736915_at) / Fold change /veh HIST1H1D (11736915_at) / RFU CASKIN2 (11723855_a_at) / Fold change /veh CASKIN2 (11723855_a_at) / RFU LOC730098 (11760151_x_at) / Fold change /veh LOC730098 (11760151_x_at) / RFU OR4N2 (11742367_at) / Fold change /veh OR4N2 (11742367_at) / RFU PRRT2 (11749266_a_at) / Fold change /veh PRRT2 (11749266_a_at) / RFU SNX32 (11753110_a_at) / Fold change /veh SNX32 (11753110_a_at) / RFU CDHR5 (11726645_a_at) / Fold change /veh CDHR5 (11726645_a_at) / RFU RCAN1 (11760418_a_at) / Fold change /veh RCAN1 (11760418_a_at) / RFU FAM167A (11723789_a_at) / Fold change /veh FAM167A (11723789_a_at) / RFU FAM26E (11764081_at) / Fold change /veh FAM26E (11764081_at) / RFU ISYNA1 (11749810_s_at) / Fold change /veh ISYNA1 (11749810_s_at) / RFU ACY1 (11761880_at) / Fold change /veh ACY1 (11761880_at) / RFU 11764098_at / Fold change /veh 11764098_at / RFU SAMD14 (11745864_x_at) / Fold change /veh SAMD14 (11745864_x_at) / RFU NPB (11741838_a_at) / Fold change /veh NPB (11741838_a_at) / RFU TMPRSS6 (11731388_a_at) / Fold change /veh TMPRSS6 (11731388_a_at) / RFU KRTAP10-2 (11738614_at) / Fold change /veh KRTAP10-2 (11738614_at) / RFU ARHGAP8 /// PRR5-ARHGAP8 (11727945_x_at) / Fold change /veh ARHGAP8 /// PRR5-ARHGAP8 (11727945_x_at) / RFU KRTAP5-7 /// NADSYN1 (11734609_at) / Fold change /veh KRTAP5-7 /// NADSYN1 (11734609_at) / RFU RASL12 (11751679_a_at) / Fold change /veh RASL12 (11751679_a_at) / RFU CDKN2B (11736163_a_at) / Fold change /veh CDKN2B (11736163_a_at) / RFU PRF1 (11729649_at) / Fold change /veh PRF1 (11729649_at) / RFU, ZNF638 /// ZNF638-IT1 / Fold change vs veh, ZNF638 /// ZNF638-IT1 / RFU, PANK3 / Fold change vs veh, PANK3 / RFU, SH3YL1 / Fold change vs veh, SH3YL1 / RFU, ZEB2 / Fold change vs veh, ZEB2 / RFU, NRIP1 / Fold change vs veh, NRIP1 / RFU, PTTG1IP / Fold change vs veh, PTTG1IP / RFU, CAPN2 / Fold change vs veh, CAPN2 / RFU, MED14 / Fold change vs veh, MED14 / RFU, SNORA58 / Fold change vs veh, SNORA58 / RFU, C1orf63 / Fold change vs veh, C1orf63 / RFU, LRRFIP1 / Fold change vs veh, LRRFIP1 / RFU, NDUFAF7 / Fold change vs veh, NDUFAF7 / RFU, SLC12A2 / Fold change vs veh, SLC12A2 / RFU, IBTK / Fold change vs veh, IBTK / RFU, ESF1 / Fold change vs veh, ESF1 / Fold change vs veh, TMEM50B / RFU, TAOK1 / Fold change vs veh, TAOK1 / RFU, ACBD3 / Fold change vs veh, ACBD3 / RFU, TMA16 / Fold change vs veh, TMA16 / RFU, RWDD3 / Fold change vs veh, RWDD3 / RFU, BCAT1 / Fold change vs veh, BCAT1 / RFU, EDEM3 / Fold change vs veh, EDEM3 / RFU, TMEM33 / Fold change vs veh, TMEM33 / RFU, WDR75 / Fold change vs veh, WDR75 / RFU, AHCTF1 / Fold change vs veh, AHCTF1 / RFU, TFRC / Fold change vs veh, TFRC / RFU, ZDHHC17 / Fold change vs veh, ZDHHC17 / RFU, NOM1 / Fold change vs veh, NOM1 / RFU, ARL8B / Fold change vs veh, ARL8B / RFU, ZBTB11 / Fold change vs veh, ZBTB11 / RFU, TAMM41 / Fold change vs veh, TAMM41 / RFU, KIAA1704 /// LOC100996395 / Fold change vs veh, KIAA1704 /// LOC100996395 / RFU, ING1 / Fold change vs veh, ING1 / RFU, TRMT61B / Fold change vs veh, TRMT61B / RFU, FUBP3 / Fold change vs veh, FUBP3 / RFU, TP53 / Fold change vs veh, TP53 / RFU, TNKS2 / Fold change vs veh, TNKS2 / RFU, ZFP14 / Fold change vs veh, ZFP14 / RFU, ACTR2 / Fold change vs veh, ACTR2 / RFU, PPP3R1 / Fold change vs veh, PPP3R1 / RFU, PIK3R1 / Fold change vs veh, PIK3R1 / RFU, HNRNPA1 / Fold change vs veh, HNRNPA1 / RFU, RNF170 / Fold change vs veh, RNF170 / RFU, ZNF28 / Fold change vs veh, ZNF28 / RFU, RNGTT / Fold change vs veh, RNGTT / RFU, OGT / Fold change vs veh, OGT / RFU, BRD1 / Fold change vs veh, BRD1 / RFU, MARS / Fold change vs veh, MARS / RFU, ZNF655 / Fold change vs veh, ZNF655 / RFU, FAHD1 / Fold change vs veh, FAHD1 / RFU, BDP1 / Fold change vs veh, BDP1 / RFU, LRRCC1 / Fold change vs veh, LRRCC1 / RFU, ARID1A / Fold change vs veh, ARID1A / RFU, ZNF146 / Fold change vs veh, ZNF146 / RFU, ZNF330 / Fold change vs veh, ZNF330 / RFU, GPN3 / Fold change vs veh, GPN3 / RFU, C9orf123 / Fold change vs veh, C9orf123 / RFU, N4BP2L2 / Fold change vs veh, N4BP2L2 / RFU, ARFIP1 / Fold change vs veh, ARFIP1 / RFU, FAM179B / Fold change vs veh, FAM179B / RFU, BCL10 / Fold change vs veh, BCL10 / RFU, UHRF1BP1L / Fold change vs veh, UHRF1BP1L / RFU, BET1 / Fold change vs veh, BET1 / RFU, CNOT2 / Fold change vs veh, CNOT2 / RFU, ZNF268 / Fold change vs veh, ZNF268 / Fold change vs veh, ZNF507 / RFU, DGCR2 / Fold change vs veh, DGCR2 / RFU, WDSUB1 / Fold change vs veh, WDSUB1 / Fold change vs veh, HSP90B1 /// MIR3652 / RFU, ADSS / Fold change vs veh, ADSS / RFU, GK / Fold change vs veh, GK / RFU, ZNF148 / Fold change vs veh, ZNF148 / RFU, TAF9 / Fold change vs veh, TAF9 / RFU, SLC1A5 / Fold change vs veh, SLC1A5 / RFU, SLMO2 / Fold change vs veh, SLMO2 / RFU, ABCC4 / Fold change vs veh, ABCC4 / RFU, LOC101060439 /// RAP1B / Fold change vs veh, LOC101060439 /// RAP1B / RFU, RFX7 / Fold change vs veh, RFX7 / RFU, GTPBP10 / Fold change vs veh, GTPBP10 / RFU, CNEP1R1 / Fold change vs veh, CNEP1R1 / RFU, BIVM-ERCC5 /// ERCC5 / Fold change vs veh, BIVM-ERCC5 /// ERCC5 / RFU, ILF3 / Fold change vs veh, ILF3 / RFU 11762660_at / Fold change /veh 11762660_at / RFU VCAN (11757783_s_at) / Fold change /veh VCAN (11757783_s_at) / RFU DDX43 (11728927_at) / Fold change /veh DDX43 (11728927_at) / RFU KRT8 (11758188_x_at) / Fold change /veh KRT8 (11758188_x_at) / RFU NKD1 (11759106_at) / Fold change /veh NKD1 (11759106_at) / RFU SRD5A1 (11742802_a_at) / Fold change /veh SRD5A1 (11742802_a_at) / RFU TPSAB1 /// TPSB2 (11721975_s_at) / Fold change /veh TPSAB1 /// TPSB2 (11721975_s_at) / RFU GSTM3 (11746129_a_at) / Fold change /veh GSTM3 (11746129_a_at) / RFU IL23R (11737362_x_at) / Fold change /veh IL23R (11737362_x_at) / RFU TMEM51 (11727254_a_at) / Fold change /veh TMEM51 (11727254_a_at) / RFU PIWIL2 (11732686_x_at) / Fold change /veh PIWIL2 (11732686_x_at) / RFU ORM1 (11744905_x_at) / Fold change /veh ORM1 (11744905_x_at) / RFU CCDC152 (11743942_at) / Fold change /veh CCDC152 (11743942_at) / RFU ECM1 (11717891_a_at) / Fold change /veh ECM1 (11717891_a_at) / RFU IL23R (11748794_a_at) / Fold change /veh IL23R (11748794_a_at) / RFU TNFAIP8L3 (11732012_x_at) / Fold change /veh TNFAIP8L3 (11732012_x_at) / RFU MBOAT4 (11741988_at) / Fold change /veh MBOAT4 (11741988_at) / RFU 11764193_at / Fold change /veh 11764193_at / RFU TMEM53 (11763286_at) / Fold change /veh TMEM53 (11763286_at) / RFU MAGEB2 (11727129_at) / Fold change /veh MAGEB2 (11727129_at) / RFU TMEM200A (11744735_a_at) / Fold change /veh TMEM200A (11744735_a_at) / RFU CCDC152 (11751479_a_at) / Fold change /veh CCDC152 (11751479_a_at) / RFU FAM211A (11726209_a_at) / Fold change /veh FAM211A (11726209_a_at) / RFU RGS16 (11746705_a_at) / Fold change /veh RGS16 (11746705_a_at) / RFU VCAN (11755009_s_at) / Fold change /veh VCAN (11755009_s_at) / RFU RHOB (11743442_s_at) / Fold change /veh RHOB (11743442_s_at) / RFU RGS16 (11720943_a_at) / Fold change /veh RGS16 (11720943_a_at) / RFU RGS16 (11720944_at) / Fold change /veh RGS16 (11720944_at) / RFU, VPS4B / Fold change vs veh, VPS4B / RFU, CREB1 / Fold change vs veh, CREB1 / RFU, DNAJC13 / Fold change vs veh, DNAJC13 / RFU, GNAQ / Fold change vs veh, GNAQ / RFU, CDK5R1 / Fold change vs veh, CDK5R1 / RFU, ZRANB3 / Fold change vs veh, ZRANB3 / RFU, CUL4A / Fold change vs veh, CUL4A / RFU, CCNY / Fold change vs veh, CCNY / RFU, UFL1 / Fold change vs veh, UFL1 / RFU, COG3 / Fold change vs veh, COG3 / RFU, DIAPH2 / Fold change vs veh, DIAPH2 / RFU, SKA2 / Fold change vs veh, SKA2 / RFU, AFF3 / Fold change vs veh, AFF3 / RFU, LMF1 / Fold change vs veh, LMF1 / RFU, IPO11 / Fold change vs veh, IPO11 / RFU, DFFB / Fold change vs veh, DFFB / RFU, FOXP1 / Fold change vs veh, FOXP1 / RFU, CARD8 / Fold change vs veh, CARD8 / RFU, STRN3 / Fold change vs veh, STRN3 / RFU, ADK / Fold change vs veh, ADK / RFU, RASSF2 / Fold change vs veh, RASSF2 / RFU, WIPF1 / Fold change vs veh, WIPF1 / RFU, LARP1B / Fold change vs veh, LARP1B / RFU, RASA1 / Fold change vs veh, RASA1 / RFU, RB1 / Fold change vs veh, RB1 / RFU, PPFIA1 / Fold change vs veh, PPFIA1 / RFU, MAT2A / Fold change vs veh, MAT2A / RFU, CCT5 / Fold change vs veh, CCT5 / RFU, WDR92 / Fold change vs veh, WDR92 / RFU, CUX1 / Fold change vs veh, CUX1 / RFU, TTC7A / Fold change vs veh, TTC7A / RFU, TMEM135 / Fold change vs veh, TMEM135 / RFU, DEPTOR / Fold change vs veh, DEPTOR / RFU, CPM / Fold change vs veh, CPM / RFU, DNAJB6 / Fold change vs veh, DNAJB6 / RFU, CACNA2D3 / Fold change vs veh, CACNA2D3 / RFU, DTX4 / Fold change vs veh, DTX4 / RFU, TFCP2 / Fold change vs veh, TFCP2 / RFU, GMCL1 /// GMCL1P1 / Fold change vs veh, GMCL1 /// GMCL1P1 / RFU, AEBP2 / Fold change vs veh, AEBP2 / RFU, SNHG1 /// SNORD22 /// SNORD25 /// SNORD26 /// SNORD27 /// SNORD28 /// SNORD29 /// SNORD31 / Fold change vs veh, SNHG1 /// SNORD22 /// SNORD25 /// SNORD26 /// SNORD27 /// SNORD28 /// SNORD29 /// SNORD31 / Fold change (Aza/veh), C12orf56 (ProbeSet 11735607_a_at) / Fold change (ACY-1035/veh), C12orf56 (ProbeSet 11735607_a_at) / Fold change (Aza/veh), FGFR1OP (ProbeSet 11751329_s_at) / Fold change (ACY-1035/veh), FGFR1OP (ProbeSet 11751329_s_at) / Fold change (Aza/veh), VPS36 (ProbeSet 11739960_a_at) / Fold change (ACY-1035/veh), VPS36 (ProbeSet 11739960_a_at) / RFU SYPL1 (11715823_x_at) / Fold change /veh SYPL1 (11715823_x_at) / RFU IGFBP7 (11715501_s_at) / Fold change /veh IGFBP7 (11715501_s_at) / RFU REEP3 (11722064_at) / Fold change /veh REEP3 (11722064_at) / RFU IGLL1 (11728026_x_at) / Fold change /veh IGLL1 (11728026_x_at): dose or concentration left out as unconfirmed
# Conditions: ProbeSet 11727827_x_at; LIST B
compound,measurement,value
Nc1ncn([C@@H]2O[C@H](CO)[C@@H](O)[C@H]2O)c(=O)n1 [azacitidine],"RFU, NDUFAF7",58.08 RFU
